Results taken from patent publication EP3732162B1, “NITROALKENE NON STEROIDAL ANTI-INFLAMMATORY DRUGS (NA-NSAIDS) AND METHODS OF TREATING INFLAMMATION RELATED CONDITIONS” (Institut Pasteur De Montevideo, priority 2017, dated 2019).

How the values were obtained:
[1] = Adduct formation with beta mercaptoethanol (BME), followed spectrophotometrically
Source text: While not wishing to be bound by theory, during inflammation, reversible reactions with nucleophilic molecules such as NF-κB and the inflammasomes have shown to modify inflammatory response. One method to identify reactions with nucleophilic targets at physiological pH is by screening with beta mercaptoethanol ("BME"). […] Thus, the nitroalkene NSAIDs within the scope of the present invention react with nucleophilic molecules such as NF-κB and the inflammasomes to modify inflammatory response.

IL-1β = assay: In vivo model of peritonitis (LPS-induced inflammatory response), IL-1β by ELISA; settings: mice, 50 mg/kg IP 1 hour before LPS 10 mg/kg IP for 2 hours; as opposed to BA; FIG. 12
Procedure: Mice were treated with BANA, Benzoic Acid (50 mg/kg, IP) or the vehicle (100 mM Phosphate buffer 10% DMSO) for 1 hour. Then were injected with LPS (10 mg/kg, IP) or PBS for 2 hours. Mice were collected for peritoneal wash and blood samples were extracted. The peritoneal wash and plasma were stored to measure IL-1β by ELISA. The values are show as mean ± SD from three mice per condition and we have used the statistic test one-way ANOVA with Bonferroni.

inflammasome = assay: IL-1β secretion by ELISA in PMA-differentiated macrophages, compound given together with ATP (2nd signal); format: cell-based
Procedure: (§1) In order to compare benzoic acid (BA) and nitroalkene benzoic acid (BANA) over NF-κB and inflammasome function in macrophages, TUP-1 cells were differentiated into macrophages with PMA (200 nM, 48 h). Cells were then stimulated with LPS (250ng/mL) and with ATP (5mM, 45 minutes). Together with LPS (1st signal, FIG. 6) or ATP (2nd signal, FIG. 7), cells were treated with Benzoic acid (30 µM) or BANA (30 µM). Supernatants were collected and IL-1β secretion was measured by ELISA. […] Thus, BANA inhibits both the generation of the inflammasome, and inhibits the inflammasome itself.
(§2) Further exemplary studies were performed with Flufenamate (FluFE) and nitroalkene flufenamate (FluFENA). In order to study the effect of Flufenamate (FluFE) and FluFENA over NF-κB and inflammasome function in macrophages, THP-1 cells were differentiated into macrophages with PMA (200 nM, 48 h). Cells were stimulated with LPS (250ng/mL) and then with ATP (5mM, 45 minutes). Together with LPS (1st signal, FIG. 8) or ATP (2nd signal, FIG. 9), cells were treated with FluFE (5 µM) or FluFENA (5 µM). Supernatant were collected and IL-1β secretion was measured by ELISA. Cell viability was assessed by the MTT assay.
(§3) To study the effect of ibuprofen and IBUNA over NF-xB and inflammasome function in macrophages, TUP-1 cells were differentiated into macrophages with PMA (200 nM, 48 h). Cells were stimulated with LPS (250ng/mL) and then with ATP (5mM, 45 minutes). Together with LPS (1st signal, FIG. 10) or ATP (2nd signal, FIG. 11), cells were treated with Ibuprofen (20 µM) or IBUNA (20 µM). Supernatant were collected and IL-1β secretion was measured by ELISA.

NF-κB = assay: IL-1β secretion by ELISA in PMA-differentiated macrophages, compound given together with LPS (1st signal); format: cell-based
Procedure: as §1, §2, §3

O=C(O)c1ccc(/C=C/[N+](=O)[O-])cc1 [BANA, (E)-4-(2-nitrovinyl)benzoic acid]
nitroalkene NSAID adduction with BME (absorbance) ([1]; 10 µM BANA with 30 µM BME, 100 mM phosphate buffer pH 7.4, FIG. 4): absorbance increase
level of pro-inflammatory cytokine IL-1β secretion in blood plasma (IL-1β): marked decrease
level of pro-inflammatory cytokine IL-1β secretion in peritoneal wash (IL-1β): marked decrease
IL-1β secretion (inflammasome; TUP-1 cells differentiated with PMA, LPS 250ng/mL, then 30 µM together with ATP 5mM 45 minutes (2nd signal), vs Benzoic acid 30 µM, FIG. 7): inhibition of IL-1β secretion
IL-1β secretion (NF-κB; TUP-1 cells differentiated with PMA, 30 µM together with LPS 250ng/mL (1st signal), then ATP 5mM 45 minutes, vs Benzoic acid 30 µM, FIG. 6): inhibition of IL-1β secretion

O=C(O)c1cc(/C=C/[N+](=O)[O-])ccc1Nc1cccc(C(F)(F)F)c1 [FluFENA, (E)-5-(2-nitrovinyl)-2-((3-(trifluoromethyl)phenyl)amino)benzoic acid]
nitroalkene NSAID adduction with BME (absorbance) ([1]; 12.5 µM FluFENA with 125 µM BME, 100 mM phosphate buffer pH 7.4, FIG. 3): absorbance increase
IL-1β secretion (inflammasome; THP-1 cells differentiated with PMA, 5 µM together with ATP 5mM 45 minutes (2nd signal), compared with FluFE 5 µM, FIG. 9): unexpected advantage
IL-1β secretion (NF-κB; THP-1 cells differentiated with PMA, 5 µM together with LPS 250ng/mL (1st signal), compared with FluFE 5 µM, FIG. 8): unexpected advantage

CC(C)Cc1ccc(C(C)C(=O)O)cc1/C=C/[N+](=O)[O-] (stereo not shown) [IBUNA, (E)-2-(4-isobutyl-3-(2-nitrovinyl)phenyl)propanoic acid]
nitroalkene NSAID adduction with BME (absorbance) ([1]; 50 µM IBUNA with 250 µM BME, 100 mM phosphate buffer pH 7.4, FIG. 2): absorbance increase
IL-1β secretion (inflammasome; TUP-1 cells differentiated with PMA, 20 µM together with ATP 5mM 45 minutes (2nd signal), compared with Ibuprofen 20 µM, FIG. 11): unexpected superiority
IL-1β secretion (NF-κB; TUP-1 cells differentiated with PMA, 20 µM together with LPS 250ng/mL (1st signal), compared with Ibuprofen 20 µM, FIG. 10): unexpected superiority

CC(=O)Nc1ccc(O)c(/C=C/[N+](=O)[O-])c1 [PARANA, (E)-N-(4-hydroxy-3-(2-nitrovinyl)phenyl)acetamide]
nitroalkene NSAID adduction with BME (absorbance) ([1]; 30 µM PARANA with 30 µM BME, 100mM phosphate buffer pH 7.4, FIG. 1): absorbance increase

O=[N+]([O-])/C=C/c1ccc(O)cc1 [PheNA, (E)-4-(2-nitrovinyl)phenol]
nitroalkene NSAID adduction with BME (absorbance) ([1]; 50 µM PheNA with 500 µM BME, 100 mM phosphate buffer pH 7.4, FIG. 5): absorbance increase
